Experimental data taken from patent publication US11641858B2, “Agricultural chemicals” (Redag Crop Protection Ltd, priority 2016, dated 2023).

Legend:
Phytophthora cinnamomi = assay: Amended agar assay (potato dextrose agar), reduction in colony growth; assay type: cell-based; details: for inhibition of growth at 20 ppm / control over the fungal pathogens tested (in words): primary screen at 20 ppm; for inhibition of growth at 20 ppm: read-out: % control at 20 ppm; for EC50: descending test concentrations, 5-fold dilutions typically down to 0.032 ppm, read-out: Phytophthora cinnamomi (EC50)
Method: (§1) Testing was carried out on potato dextrose agar (PDA) amended with each compound at test concentrations of 20, 4 and 0.8, 0.16 and 0.032 ppm. Amended agar at each test concentration was poured into three replicate 9 cm petri dishes. Each replicate dish was inoculated in the centre with a 5 mm agar plug taken from the leading edge of a culture aged between 2 and 7 days old; the age of the culture was dependant on the growth rate of the pathogen being tested. The test pathogens were Pythium ultimum and Phytophthora cinnamomi. Plates were incubated at 18° C. and the diameter of each colony measured before growth on the fastest growing plate reached the plate edge. This varied between 2 and 7 days depending on the growth rate of test pathogens. The % reduction in colony growth compared to the control was calculated for each test concentration and pathogen combination.
(§2) The results are shown in Table 1 in which * represents an average control of up to 50% at said dosage; ** represents an average control of 50% or greater but less than 80% at said dosage; and *** represents an average control of 80% or greater at said dosage.
(§3) A primary screen was also conducted for a number of other compounds of the invention. The screen was conducted at 20 ppm and the results are provided in Table 2, in which D represents no control detected at this concentration; C represents up to 50% control; B from 50 to 99% control; and A represents a control of greater than 99%.
(§4) Alternatively, or in addition, the same assay was conducted at descending test concentrations with 5-fold dilutions typically down to 0.032 ppm, and an EC50 (the concentration at which 50% control would be achieved) was determined. The results are provided in Table 1 in which G represents an EC50 above 20 ppm, F represents an EC50 of 2-20 ppm and E represents and EC50 less than 2 ppm.

Pythium ultimum = assay: as above; assay type: cell-based; details: for inhibition of growth at 20 ppm / EC50: Globisporangium ultimum; for inhibition of growth at 20 ppm / control over the fungal pathogens tested (in words): primary screen at 20 ppm; for inhibition of growth at 20 ppm: read-out: % control at 20 ppm; for EC50: descending test concentrations, 5-fold dilutions typically down to 0.032 ppm, read-out: Pythium ultimum (EC50)
Method: as §1, §2, §3, §4

[1] = Pythium ultimum, dose 0.032 ppm in amended agar
[2] = Pythium ultimum, dose 0.16 ppm in amended agar
[3] = Pythium ultimum, dose 0.8 ppm in amended agar
[4] = Pythium ultimum, dose 4 ppm in amended agar
[5] = Pythium ultimum, dose 20 ppm in amended agar

Structure (SMILES)	EC50 (Phytophthora cinnamomi) [µg/mL]	EC50 (Pythium ultimum) [µg/mL]	inhibition of growth at 20 ppm (Phytophthora cinnamomi) [%]	inhibition of growth at 20 ppm (Pythium ultimum; Pythium ultimum) [%]	control over the fungal pathogens tested (in words) (Phytophthora cinnamomi)	control over the fungal pathogens tested (in words) (Pythium ultimum; Pythium ultimum)	also measured
Cn1nnnc1C(=NOCc1cccc(NC(=O)C(F)(F)Oc2ccccc2)n1)c1ccccc1 [A, reference compound]			> 99	> 99			average % control at given dosage (Phytophthora cinnamomi; dose 0.032 ppm in amended agar): *** (an average control of 80% or greater at said dosage); average % control at given dosage (Phytophthora cinnamomi; dose 0.16 ppm in amended agar): *** (an average control of 80% or greater at said dosage); average % control at given dosage (Phytophthora cinnamomi; dose 0.8 ppm in amended agar): *** (an average control of 80% or greater at said dosage); average % control at given dosage (Phytophthora cinnamomi; dose 4 ppm in amended agar): *** (an average control of 80% or greater at said dosage); average % control at given dosage (Phytophthora cinnamomi; dose 20 ppm in amended agar): *** (an average control of 80% or greater at said dosage); average % control at given dosage (Pythium ultimum; [1]): *** (an average control of 80% or greater at said dosage); average % control at given dosage (Pythium ultimum; [2]): *** (an average control of 80% or greater at said dosage); average % control at given dosage (Pythium ultimum; [3]): *** (an average control of 80% or greater at said dosage); average % control at given dosage (Pythium ultimum; [4]): *** (an average control of 80% or greater at said dosage); average % control at given dosage (Pythium ultimum; [5]): *** (an average control of 80% or greater at said dosage)
Cn1nnnc1N(C(=O)OCc1cccc(NC(=O)C(F)(F)Oc2ccccc2)n1)c1ccccc1 [B, reference compound]							average % control at given dosage (Phytophthora cinnamomi; dose 0.032 ppm in amended agar): * (an average control of up to 50% at said dosage); average % control at given dosage (Phytophthora cinnamomi; dose 0.16 ppm in amended agar): ** (an average control of 50% or greater but less than 80% at said dosage); average % control at given dosage (Phytophthora cinnamomi; dose 0.8 ppm in amended agar): ** (an average control of 50% or greater but less than 80% at said dosage); average % control at given dosage (Phytophthora cinnamomi; dose 4 ppm in amended agar): ** (an average control of 50% or greater but less than 80% at said dosage); average % control at given dosage (Phytophthora cinnamomi; dose 20 ppm in amended agar): ** (an average control of 50% or greater but less than 80% at said dosage); average % control at given dosage (Pythium ultimum; [1]): * (an average control of up to 50% at said dosage); average % control at given dosage (Pythium ultimum; [2]): ** (an average control of 50% or greater but less than 80% at said dosage); average % control at given dosage (Pythium ultimum; [3]): ** (an average control of 50% or greater but less than 80% at said dosage); average % control at given dosage (Pythium ultimum; [4]): *** (an average control of 80% or greater at said dosage); average % control at given dosage (Pythium ultimum; [5]): *** (an average control of 80% or greater at said dosage)
Cn1nnnc1-n1c(OCc2cccc(NC(=O)C(F)(F)Oc3ccccc3)n2)nc2ccccc21 [Example 1, 2,2-Difluoro-N-(6-(((1-(1-methyl-1H-tetrazol-5-yl)-1H-benzo[d]imidazol-2-yl)oxy)methyl)pyridin-2-yl)-2-phenoxyacetamide]	< 2	< 2	> 99	> 99	excellent control	excellent control	control over the tested oomycete fungal plant pathogens (in words) (Phytophthora cinnamomi; Table 1 doses 0.032-20 ppm, even at low concentrations): excellent control; average % control at given dosage (Phytophthora cinnamomi; dose 0.032 ppm in amended agar): *** (an average control of 80% or greater at said dosage); average % control at given dosage (Phytophthora cinnamomi; dose 0.16 ppm in amended agar): *** (an average control of 80% or greater at said dosage); average % control at given dosage (Phytophthora cinnamomi; dose 0.8 ppm in amended agar): *** (an average control of 80% or greater at said dosage); average % control at given dosage (Phytophthora cinnamomi; dose 4 ppm in amended agar): *** (an average control of 80% or greater at said dosage); average % control at given dosage (Phytophthora cinnamomi; dose 20 ppm in amended agar): *** (an average control of 80% or greater at said dosage); control over the tested oomycete fungal plant pathogens (in words) (Pythium ultimum; Pythium ultimum, Table 1 doses 0.032-20 ppm, even at low concentrations): excellent control; average % control at given dosage (Pythium ultimum; [1]): *** (an average control of 80% or greater at said dosage); average % control at given dosage (Pythium ultimum; [2]): *** (an average control of 80% or greater at said dosage); average % control at given dosage (Pythium ultimum; [3]): *** (an average control of 80% or greater at said dosage); average % control at given dosage (Pythium ultimum; [4]): *** (an average control of 80% or greater at said dosage); average % control at given dosage (Pythium ultimum; [5]): *** (an average control of 80% or greater at said dosage)
Cc1noc(-n2c(OCc3cccc(NC(=O)C(F)(F)Oc4ccccc4)n3)nc3ccccc32)c1C [Example 5, N-(6-(((1-(3,4-Dimethylisoxazol-5-yl)-1H-benzo[d]imidazol-2-yl)oxy)methyl)pyridin-2-yl)-2,2-difluoro-2-phenoxyacetamide]			< 50	50 to 99			
Cc1cc(-n2c(OCc3cccc(NC(=O)C(F)(F)Oc4ccccc4)n3)nc3ccccc32)sn1 [Example 8]				< 50			
CC(=O)Nc1cccc(COc2nc3ccccc3n2-c2nnnn2C)n1 [Example 10, N-(6-(((1-(1-Methyl-1H-tetrazol-5-yl)-1H-benzo[d]imidazol-2-yl)oxy)methyl)pyridin-2-yl)acetamide]			50 to 99	45 to 55			

Further lines, with some results ahead:

EC50 (Phytophthora cinnamomi) [µg/mL]	EC50 (Pythium ultimum) [µg/mL]	Structure (SMILES)	inhibition of growth at 20 ppm (Phytophthora cinnamomi) [%]	inhibition of growth at 20 ppm (Pythium ultimum; Pythium ultimum) [%]	control over the fungal pathogens tested (in words) (Phytophthora cinnamomi)	control over the fungal pathogens tested (in words) (Pythium ultimum; Pythium ultimum)	also measured
< 2	< 2	Cn1nnnc1-n1c(OCc2cccc(NC(=O)OC(C)(C)C)n2)nc2ccccc21 [Example 2]	> 99	> 99	excellent control	excellent control	
< 2	< 2	Cc1cccnc1-n1c(OCc2cccc(NC(=O)C(F)(F)Oc3ccccc3)n2)nc2ccccc21 [Example 3]	50 to 99	50 to 99			
< 2	< 2	Cn1nccc1-n1c(OCc2cccc(NC(=O)C(F)(F)Oc3ccccc3)n2)nc2ccccc21 [Example 4]	50 to 99	50 to 99			
< 2	< 2	Cn1nnnc1-n1c(OCc2cccc(NC(=O)C(F)(F)Oc3ccccc3)n2)nc2ccc(F)cc21 [Example 6]	> 99	> 99	excellent control	excellent control	
> 20	> 20	O=C(Nc1cccc(COc2nc3ccccc3n2-c2ccccn2)n1)C(F)(F)Oc1ccccc1 [Example 7]					
> 20	> 20	O=C(Nc1cccc(COc2nc3ccccc3n2-c2ccon2)n1)C(F)(F)Oc1ccccc1 [Example 9]					
< 2	< 2	CCOC(=O)Nc1cccc(COc2nc3ccccc3n2-c2nnnn2C)n1 [Example 11, Ethyl (6-(((1-(1-methyl-1H-tetrazol-5-yl)-1H-benzo[d]imidazol-2-yl)oxy)methyl)pyridin-2-yl)carbamate]	50 to 99	> 99	excellent control	excellent control	
